*1 amine or outer side, *2 acyl side, *3 side chain or, on linkers, in order; H or OH if unused. Where a SMILES comes first, the peptide text is derived from it. Bridges are numbered along the chain shown (N, C = ends). [ ]: non-standard residue; d: D form. The star is where a group is joined. X3 = O=C(O)CN1CCN(CC(=O)O)CCN(CC(=O)NCCCOCCOCCOCCCN*)CCN(CC(=O)O)CC1; Maleimide(3,4-diyl) = O=C1NC(=O)C([*:2])=C1[*:1]; Trp(5-Cl) = N[C@@H](Cc1c[nH]c2ccc(Cl)cc12)C(=O)O; Phe(3,4-Cl2) = N[C@@H](Cc1ccc(Cl)c(Cl)c1)C(=O)O; Pyridine(2,6-diCH2) = c1cc(C[*:1])nc(C[*:2])c1; Phe(2,4-Cl2) = N[C@@H](Cc1ccc(Cl)cc1Cl)C(=O)O; Oic = O=C(O)[C@@H]1C[C@@H]2CCCC[C@@H]2N1; X23 = O=C(c1cccc(CSCCN[*:1])c1)[*:2]; Hyp = O=C(O)[C@@H]1C[C@@H](O)CN1; Suc = O=C(CCC(=O)[*:2])[*:1]; hCys = N[C@@H](CCS)C(=O)O; Thp = NC1(C(=O)O)CCOCC1; Dap = NC[C@H](N)C(=O)O; Aib = CC(C)(N)C(=O)O; Bn = c1ccc(C*)cc1; Sar = CNCC(=O)O

The target of this assay is T1, GIPR (CHO-K1-hGIPR cells) (Homo sapiens, UniProt P48546).
T1 construct: host or cells: CHO-K1
T1 sequence (P48546 22-466): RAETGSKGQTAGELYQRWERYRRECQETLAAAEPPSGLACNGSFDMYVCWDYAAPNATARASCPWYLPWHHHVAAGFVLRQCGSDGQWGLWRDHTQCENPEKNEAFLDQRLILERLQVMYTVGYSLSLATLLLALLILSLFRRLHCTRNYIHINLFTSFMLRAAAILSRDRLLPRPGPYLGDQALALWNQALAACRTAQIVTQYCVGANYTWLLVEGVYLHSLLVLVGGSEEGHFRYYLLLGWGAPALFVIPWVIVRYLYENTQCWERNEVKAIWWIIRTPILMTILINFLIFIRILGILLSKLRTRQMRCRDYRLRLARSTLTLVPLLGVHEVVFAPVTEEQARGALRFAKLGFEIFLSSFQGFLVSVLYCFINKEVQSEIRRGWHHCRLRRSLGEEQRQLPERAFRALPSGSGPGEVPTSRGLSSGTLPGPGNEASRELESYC
The experiment in a line: FACS binding assay. The following applies: competition with 20 nM GIP-057, 4° C. for 1 hour, read-out: pIC50 Category (converted). Put shortly: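 Peptide binding read by flow cytometry as APC-channel median fluorescence, fitted with a four-parameter logistic to yield EC50 or IC50. Cells were hGIPR-transfected CHO-K1 in PBS with 1% FCS, detected with 1 μg/mL APC-streptavidin, 30 min on ice.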
`CC[C@H](C)[C@@H]1NC(=O)[C@H](CC(C)C)NC(=O)C2(CCOCC2)NC(=O)[C@@H](NC(=O)[C@@H](CC(C)C)NC(=O)[C@H](CCC(=O)O)NC(=O)[C@@H]2C[C@@H](O)CN2C(=O)[C@H](Cc2ccc(Cl)cc2Cl)NC(=O)[C@H](Cc2c[nH]c3ccccc23)NC(=O)[C@H](CC(=O)O)NC(C)=O)CSCc2cccc(n2)CSC[C@@H](C(N)=O)NC1=O` [GIP-351, Ac-Asp-Trp-Egm-Hyp-Glu-leu-[Cys(2Lut)-Thp-Leu-Ile-Cys]-NH2] (Ac-DW[Phe(2,4-Cl2)][Hyp]E[dL]C[Thp]LIC-NH2; linker 7-11 via Pyridine(2,6-diCH2)): the IC50 was more than 1000 nM.

For `CC[C@H](C)[C@@H]1NC(=O)[C@H](CC(C)C)NC(=O)C2(CCOCC2)NC(=O)[C@@H](NC(=O)[C@@H](CC(C)C)NC(=O)[C@H](CCC(=O)O)NC(=O)[C@@H]2C[C@@H](O)CN2C(=O)[C@H](Cc2ccccc2)NC(=O)[C@H](Cc2c[nH]c3ccccc23)NC(=O)[C@H](CC(=O)O)NC(C)=O)CSCc2cccc(n2)CSC[C@@H](C(N)=O)NC1=O` [GIP-352, Ac-Asp-Trp-Phe-Hyp-Glu-leu-[Cys(2Lut)-Thp-Leu-Ile-Cys]-NH2] (Ac-DWF[Hyp]E[dL]C[Thp]LIC-NH2; linker 7-11 via Pyridine(2,6-diCH2)), the IC50 is more than 1000 nM.

In the case of `CC(=O)N[C@@H](CC(=O)O)C(=O)N[C@@H](Cc1c[nH]c2ccccc12)C(=O)N[C@@H](Cc1c[nH]c2ccc(Cl)cc12)C(=O)N1C[C@H](O)C[C@H]1C(=O)N[C@@H](CCC(=O)O)C(=O)N[C@H](CC(C)C)C(=O)N[C@H]1CSCc2cccc(n2)CSC[C@@H](C(N)=O)NC(=O)[C@H](CCCNC(=N)N)NC(=O)[C@H](CC(C)C)NC(=O)C2(CCOCC2)NC1=O` [GIP-353, Ac-Asp-Trp-5Clw-Hyp-Glu-leu-[Cys(2Lut)-Thp-Leu-Arg-Cys]-NH2] (Ac-DW[Trp(5-Cl)][Hyp]E[dL]C[Thp]LRC-NH2; linker 7-11 via Pyridine(2,6-diCH2)), the IC50 is more than 1000 nM.

As for `CC(=O)N[C@@H](CC(=O)O)C(=O)N[C@@H](Cc1c[nH]c2ccccc12)C(=O)N[C@@H](Cc1c[nH]c2ccc(Cl)cc12)C(=O)N1C[C@H](O)C[C@H]1C(=O)N[C@@H](CCC(=O)O)C(=O)N[C@H](CC(C)C)C(=O)N[C@H]1CSCc2cccc(n2)CSC[C@@H](C(N)=O)NC(=O)[C@H](CCC(=O)O)NC(=O)[C@H](CC(C)C)NC(=O)C2(CCOCC2)NC1=O` [GIP-354, Ac-Asp-Trp-5Clw-Hyp-Glu-leu-[Cys(2Lut)-Thp-Leu-Glu-Cys]-NH2] (Ac-DW[Trp(5-Cl)][Hyp]E[dL]C[Thp]LEC-NH2; linker 7-11 via Pyridine(2,6-diCH2)), the IC50 is more than 1000 nM.

Consider `CC(=O)N[C@@H](CC(=O)O)C(=O)N[C@@H](Cc1c[nH]c2ccccc12)C(=O)N[C@@H](Cc1c[nH]c2ccc(Cl)cc12)C(=O)N1C[C@H](O)C[C@H]1C(=O)N[C@@H](CCC(=O)O)C(=O)N[C@H](CC(C)C)C(=O)N[C@H]1CSCc2cccc(n2)CSC[C@@H](C(N)=O)NC(=O)[C@H](Cc2c[nH]c3ccccc23)NC(=O)[C@H](CC(C)C)NC(=O)C2(CCOCC2)NC1=O` [GIP-355, Ac-Asp-Trp-5Clw-Hyp-Glu-leu-[Cys(2Lut)-Thp-Leu-Trp-Cys]-NH2] (Ac-DW[Trp(5-Cl)][Hyp]E[dL]C[Thp]LWC-NH2; linker 7-11 via Pyridine(2,6-diCH2)), for which the IC50 is more than 1000 nM.

`CC[C@H](C)[C@@H]1NC(=O)[C@H](CC(C)C)NC(=O)C2(CCOCC2)NC(=O)[C@@H](NC(=O)[C@@H](CC(C)C)NC(=O)[C@H](CCC(=O)O)NC(=O)[C@@H]2C[C@@H]3CCCC[C@@H]3N2C(=O)[C@H](Cc2ccc(Cl)c(Cl)c2)NC(=O)[C@H](Cc2ccc(Cl)c(Cl)c2)NC(=O)[C@H](CC(=O)O)NC(C)=O)CSCc2cccc(n2)CSC[C@@H](C(N)=O)NC1=O` [GIP-356, Ac-Asp-Eaa-Eaa-Oic-Glu-leu-[Cys(2Lut)-Thp-Leu-Ile-Cys]-NH2] (Ac-D[Phe(3,4-Cl2)][Phe(3,4-Cl2)][Oic]E[dL]C[Thp]LIC-NH2; linker 7-11 via Pyridine(2,6-diCH2)): the IC50 was more than 1000 nM.

As for `CC[C@H](C)[C@@H]1NC(=O)[C@H](CC(C)C)NC(=O)C2(CCOCC2)NC(=O)[C@@H](NC(=O)[C@@H](CC(C)C)NC(=O)[C@H](CCC(=O)O)NC(=O)CN(C)C(=O)[C@H](Cc2ccc(Cl)c(Cl)c2)NC(=O)[C@H](Cc2ccc(Cl)c(Cl)c2)NC(=O)[C@H](CC(=O)O)NC(C)=O)CSCc2cccc(n2)CSC[C@@H](C(N)=O)NC1=O` [GIP-357, Ac-Asp-Eaa-Eaa-Nmg-Glu-leu-[Cys(2Lut)-Thp-Leu-Ile-Cys]-NH2] (Ac-D[Phe(3,4-Cl2)][Phe(3,4-Cl2)][Sar]E[dL]C[Thp]LIC-NH2; linker 7-11 via Pyridine(2,6-diCH2)), the IC50 is more than 1000 nM.

Consider `CC[C@H](C)[C@@H]1NC(=O)[C@H](CC(C)C)NC(=O)C(C)(C)NC(=O)[C@@H](NC(=O)[C@@H](CC(C)C)NC(=O)[C@H](CCC(=O)O)NC(=O)[C@@H]2CCCN2C(=O)[C@H](Cc2c[nH]c3ccc(Cl)cc23)NC(=O)[C@H](Cc2c[nH]c3ccccc23)NC(=O)[C@H](CC(=O)O)NC(=O)CCC(=O)NCCCOCCOCCOCCCNC(=O)CN2CCN(CC(=O)O)CCN(CC(=O)O)CCN(CC(=O)O)CC2)CNC(=O)c2cccc(c2)CSCCNC1=O` [GIP-358, DOTA-Ttds-Asp-Trp-5Clw-Pro-Glu-leu-[Dap(3MeBz)-Aib-Leu-Ile-AET]] ({X3-Suc}-DW[Trp(5-Cl)]PE[dL][Dap][Aib]LI[X23]; lactam 7-C), for which the IC50 is less than 10 nM.

In the case of `CC[C@H](C)[C@@H]1NC(=O)[C@H](CC(C)C)NC(=O)C2(CCOCC2)NC(=O)[C@@H](NC(=O)[C@@H](CC(C)C)NC(=O)[C@H](CCC(=O)O)NC(=O)[C@@H]2C[C@@H](O)CN2C(=O)[C@H](Cc2c[nH]c3ccc(Cl)cc23)NC(=O)[C@H](Cc2c[nH]c3ccccc23)NC(=O)[C@H](CC(=O)O)NC(C)=O)CSC2=C(SC[C@@H](C(N)=O)NC1=O)C(=O)NC2=O` [GIP-360, Ac-Asp-Trp-5Clw-Hyp-Glu-leu-[Cys(mli)-Thp-Leu-Ile-Cys]-NH2] (Ac-DW[Trp(5-Cl)][Hyp]E[dL]C[Thp]LIC-NH2; linker 7-11 via Maleimide(3,4-diyl)), the IC50 is less than 10 nM.

Take `CC[C@H](C)[C@@H]1NC(=O)[C@H](CC(C)C)NC(=O)C2(CCOCC2)NC(=O)[C@@H](NC(=O)[C@@H](CC(C)C)NC(=O)[C@H](CCC(=O)O)NC(=O)[C@@H]2C[C@@H](O)CN2C(=O)[C@H](Cc2c[nH]c3ccc(Cl)cc23)NC(=O)[C@H](Cc2c[nH]c3ccccc23)NC(=O)[C@H](CC(=O)O)NC(C)=O)CSC2=C(SCC[C@@H](C(N)=O)NC1=O)C(=O)NC2=O` [GIP-361, Ac-Asp-Trp-5Clw-Hyp-Glu-leu-[Cys(mli)-Thp-Leu-Ile-Hcy]-NH2] (Ac-DW[Trp(5-Cl)][Hyp]E[dL]C[Thp]LI[hCys]-NH2; linker 7-11 via Maleimide(3,4-diyl)): the IC50 is less than 10 nM.

With `CC[C@H](C)[C@@H]1NC(=O)[C@H](CC(C)C)NC(=O)C2(CCOCC2)NC(=O)[C@@H](NC(=O)[C@@H](CC(C)C)NC(=O)[C@H](CCC(=O)O)NC(=O)[C@@H]2C[C@@H](O)CN2C(=O)[C@H](Cc2c[nH]c3ccc(Cl)cc23)NC(=O)[C@H](Cc2c[nH]c3ccccc23)NC(=O)[C@H](CC(=O)O)NC(C)=O)CCSC2=C(SC[C@@H](C(N)=O)NC1=O)C(=O)NC2=O` [GIP-362, Ac-Asp-Trp-5Clw-Hyp-Glu-leu-[Hcy(mli)-Thp-Leu-Ile-Cys]-NH2] (Ac-DW[Trp(5-Cl)][Hyp]E[dL][hCys][Thp]LIC-NH2; linker 7-11 via Maleimide(3,4-diyl)), the IC50 was 10 to 79.4 nM.

Take `CC[C@H](C)[C@@H]1NC(=O)[C@H](CC(C)C)NC(=O)C2(CCOCC2)NC(=O)[C@@H](NC(=O)[C@@H](CC(C)C)NC(=O)[C@H](CCC(=O)O)NC(=O)[C@@H]2C[C@@H](O)CN2C(=O)[C@H](Cc2c[nH]c3ccc(Cl)cc23)NC(=O)[C@H](Cc2c[nH]c3ccccc23)NC(=O)[C@H](CC(=O)O)NC(C)=O)CCSSCC[C@@H](C(N)=O)NC1=O` [GIP-363, Ac-Asp-Trp-5Clw-Hyp-Glu-leu-[Hey-Thp-Leu-Ile-Hcy]-NH2] (Ac-DW[Trp(5-Cl)][Hyp]E[dL][hCys][Thp]LI[hCys]-NH2; disulfide 7-11): the IC50 is 10 to 79.4 nM.

In the case of `CC[C@H](C)[C@@H]1NC(=O)[C@H](CC(C)C)NC(=O)C2(CCOCC2)NC(=O)[C@@H](NC(=O)[C@@H](CC(C)C)NC(=O)[C@H](CCC(=O)O)NC(=O)[C@@H]2C[C@@H](O)CN2C(=O)[C@H](Cc2c[nH]c3ccc(Cl)cc23)NC(=O)[C@H](Cc2c[nH]c3ccccc23)NC(=O)[C@H](CC(=O)O)NC(C)=O)CSSC[C@@H](C(N)=O)NC1=O` [GIP-364, Ac-Asp-Trp-5Clw-Hyp-Glu-leu-[Cys-Thp-Leu-Ile-Cys]-NH2] (Ac-DW[Trp(5-Cl)][Hyp]E[dL]C[Thp]LIC-NH2; disulfide 7-11), the IC50 was 100 to 794 nM.

On to `CC[C@H](C)[C@H](NC(=O)[C@H](CC(C)C)NC(=O)[C@H](C)NC(=O)[C@H](CSCc1ccccc1)NC(=O)[C@H](CC(C)C)NC(=O)[C@H](CCC(=O)O)NC(=O)[C@@H]1CCCN1C(=O)[C@H](Cc1c[nH]c2ccccc12)NC(=O)[C@H](Cc1c[nH]c2ccccc12)NC(=O)[C@H](CC(=O)O)NC(=O)[C@H](Cc1ccc(O)cc1)NC(=O)[C@@H](N)CCSC)C(=O)N[C@@H](CSC)C(N)=O` [GIP-368] (H-MYDWWPELC(Bn)ALIC(Me)-NH2), for which the IC50 was 100 to 794 nM.

The record behind these values is patent publication US20250296971A1, “GASTRIC INHIBITORY PEPTIDE RECEPTOR LIGANDS” (priority 2021, published 2025).
